Test results as given in ChEMBL document CHEMBL3856262, “A diastereoselective synthesis of tetrahydro- and dihydro-pyrido[2,3-c]coumarin derivatives via a one-pot three-component Povarov reaction catalyzed by bismuth(III) chloride” (2016).
≈ marks a conversion by molar mass, not a printed value.

Legend:
Assay type in all cases: functional
Micrococcus luteus = assay: Antimicrobial activity against Micrococcus luteus MTCC 2470 incubated for 24 hrs by well diffusion assay; conditions: MTCC 2470, 24 h
Staphylococcus aureus [1] = assay: Antimicrobial activity against Staphylococcus aureus MTCC 96 incubated for 24 hrs by well diffusion assay; conditions: MTCC 96, 24 h
Staphylococcus aureus [2] = assay: Antimicrobial activity against Staphylococcus aureus MLS-16 […] incubated for 24 hrs by well diffusion assay
Bacillus subtilis = assay: Antimicrobial activity against Bacillus subtilis MTCC 121 incubated for 24 hrs by well diffusion assay; conditions: MTCC 121, 24 h
Escherichia coli = assay: Antimicrobial activity against Escherichia coli MTCC 739 incubated for 24 hrs by well diffusion assay; conditions: MTCC 739, 24 h
Pseudomonas aeruginosa = assay: Antimicrobial activity against Pseudomonas aeruginosa MTCC 2453 incubated for 24 hrs by well diffusion assay; conditions: MTCC 2453, 24 h
Raoultella planticola = assay: Antimicrobial activity against Klebsiella planticola MTCC 530 incubated for 24 hrs by well diffusion assay; conditions: MTCC 530, 24 h
Candida albicans = assay: Antimicrobial activity against Candida albicans MTCC 3017 incubated for 24 hrs by well diffusion assay; conditions: MTCC 3017, 24 h
[3] = Antioxidant activity assessed as DPPH radical scavenging activity at 0.5 mM incubated for 40 mins in dark condition
[4] = Antioxidant activity assessed as DPPH radical scavenging activity at 1 mM incubated for 40 mins in dark condition
[5] = Antioxidant activity assessed as DPPH radical scavenging activity at 2 mM incubated for 40 mins in dark condition

SMILES | MIC (Micrococcus luteus) [µg/mL] | MIC (Staphylococcus aureus [1]) [µg/mL] | MIC (Staphylococcus aureus [2]) [µg/mL] | MIC (Bacillus subtilis) [µg/mL] | MIC (Escherichia coli) [µg/mL] | MIC (Pseudomonas aeruginosa) [µg/mL] | MIC (Raoultella planticola) [µg/mL] | MIC (Candida albicans) [µg/mL] | Activity [3] [%] | Activity [4] [%] | Activity [5] [%]
CC(C)OC(=O)N1c2c(c(=O)oc3ccccc23)N[C@H](c2ccc(O)c(Cl)c2)N1C(=O)OC(C)C | > 100 | > 100 | > 100 | > 100 | > 100 | > 100 | > 100 | > 100 | 10.8 | 21 | 31.1
CCOc1ccc([C@H]2Nc3c(c4ccccc4oc3=O)[C@@H]3OCCC[C@H]23)cc1 | > 100 | > 100 | > 100 | > 100 | > 100 | > 100 | > 100 | > 100 | – | – | –
O=c1oc2ccccc2c2c1N[C@H](c1ccccc1)[C@H]1CCCO[C@@H]21 | > 100 | > 100 | > 100 | > 100 | > 100 | > 100 | > 100 | > 100 | – | – | –
Nc1cc2ccccc2oc1=O | > 100 | > 100 | > 100 | > 100 | > 100 | > 100 | > 100 | > 100 | – | 2.77 | 6.08
Cc1c(C)c2c(c(C)c1O)CC[C@@](C)(CCC[C@H](C)CCC[C@H](C)CCCC(C)C)O2 | – | – | – | – | – | – | – | – | 47.7 | 81.7 | 86.4
O=c1oc2ccccc2c2c1N[C@H](c1ccc([N+](=O)[O-])cc1)[C@H]1CCCO[C@@H]21 | > 100 | > 100 | > 100 | > 100 | > 100 | > 100 | > 100 | > 100 | – | – | –
CCOC(=O)C1=C(C(=O)OCC)[C@@H](c2cc(OC)ccc2O)Nc2c1c1ccccc1oc2=O | > 100 | > 100 | > 100 | > 100 | > 100 | > 100 | > 100 | > 100 | 9.58 | 20.1 | 32.1
CC(C)OC(=O)N1c2c(c(=O)oc3ccccc23)N[C@H](c2ccc([N+](=O)[O-])cc2)N1C(=O)OC(C)C | > 100 | > 100 | > 100 | > 100 | > 100 | > 100 | > 100 | > 100 | 3.27 | 7.06 | 14.6
CCOC(=O)C1=C(C(=O)OCC)[C@@H](c2cc(O)ccc2O)Nc2c1c1ccccc1oc2=O | > 100 | > 100 | > 100 | > 100 | > 100 | > 100 | > 100 | > 100 | 2.43 | 3.88 | 7.42
CC(C)OC(=O)N1c2c(c(=O)oc3ccccc23)N[C@H](c2ccc(C(F)(F)F)cc2)N1C(=O)OC(C)C | > 100 | > 100 | > 100 | > 100 | > 100 | > 100 | > 100 | > 100 | – | 1.06 | 6.8
O=c1oc2ccccc2c2c1N[C@H](c1ccc(Cl)cc1)[C@H]1CCCO[C@@H]21 | > 100 | > 100 | > 100 | > 100 | > 100 | > 100 | > 100 | > 100 | – | – | –
CCOC(=O)C1=C(C(=O)OCC)[C@@H](c2ccc(O)c(Cl)c2)Nc2c1c1ccccc1oc2=O | > 100 | > 100 | > 100 | > 100 | > 100 | > 100 | > 100 | > 100 | 4.84 | 5.79 | 11
O=c1oc2ccccc2c2c1N[C@H](c1ccc(Cl)cc1)C[C@H]2c1ccc2ccccc2c1 | > 100 | > 100 | > 100 | > 100 | > 100 | > 100 | > 100 | > 100 | – | – | –
COc1cc(OC)cc([C@@H]2C[C@@H](c3ccc4ccccc4c3)c3c(c(=O)oc4ccccc34)N2)c1 | > 100 | > 100 | > 100 | > 100 | > 100 | > 100 | > 100 | > 100 | – | – | –
O=C(O)c1cn(C2CC2)c2cc(N3CCNCC3)c(F)cc2c1=O [CIPROFLOXACIN] | 0.58 (≈ 1.75 µM) | 0.58 (≈ 1.75 µM) | 0.58 (≈ 1.75 µM) | 0.58 (≈ 1.75 µM) | 0.58 (≈ 1.75 µM) | 0.58 (≈ 1.75 µM) | 0.58 (≈ 1.75 µM) | – | – | – | –
Cc1cc(C(C)(C)C)c(O)c(C(C)(C)C)c1 | – | – | – | – | – | – | – | – | 39.8 | 68.5 | 78.5
Clc1ccc(COC(Cn2ccnc2)c2ccc(Cl)cc2Cl)c(Cl)c1 (stereo not given) [MICONAZOLE] | – | – | – | – | – | – | – | 9.37 (≈ 22.5 µM) | – | – | –
O=c1oc2ccccc2c2c1N[C@H](c1ccc(F)cc1)[C@H]1CCCO[C@@H]21 | > 100 | > 100 | > 100 | > 100 | > 100 | > 100 | > 100 | > 100 | – | – | –
CC(C)OC(=O)N1c2c(c(=O)oc3ccccc23)N[C@H](c2ccc(C#N)cc2)N1C(=O)OC(C)C | > 100 | > 100 | > 100 | > 100 | > 100 | > 100 | > 100 | > 100 | – | 0.88 | 3.14
